# Results reported in patent US20240401000A1, “SUSPENSION-BASED 3D CULTURE METHOD FOR ORGANOIDS” (BRIGHAM YOUNG UNIVERSITY, priority 2021, published 2024).
# What was measured:
# [1] = system: human fluorescent lung organoid (hFLO); experiment: Bleomycin-induced fibrosis in hFLO with fasudil antifibrotic trial (histochemistry, immunohistochemistry, live confocal imaging); format: cell-based; conditions: for lumen area: bleomycin 20 μg mL−1 for 3 days from day 7, then 10 μM fasudil for 4 days, day 14; for collagen deposition (Masson staining) / pro-fibrotic expression (αSMA, fibronectin, PDGFRα; H-DAB): bleomycin 20 μg mL−1 for 3 days, then 10 μM fasudil for 4 days
# Protocol: Cell aggregates were grown as described above for 7 days, after which the cell aggregates were treated with 20 μg mL 1 bleomycin (13877, Cayman Chemical Company, MI, USA, stock solution diluted in either PBS or DMSO). Media was changed after 3 days of culture with bleomycin (i.e., at day 10). At day 10, the organoids were weaned off the bleomycin insult and then treated with either 10 μM fasudil (B3523, ApexBio, TX, USA) or with DMSO (control, vehicle used for fasudil). The cultures were kept in treatment media for 4 more days with media changing every two days. Cell aggregates and media were collected and fixed as described above.
# Histologically stained samples were imaged and processed with ImageJ software. First, images were converted to an 8-bit greyscale, after which a threshold was applied. The image was then processed five times iteratively with the dilate function to converging boundary cells. […] The “count particles” function was used to measure lumen characteristics. Data was processed in Microsoft Excel, lumen under the size of 200 μm2 were excluded in all analysis except the calculations of total lumen area and lumen percent arca.
# The ratios of collagen to tissue in organoids were determined by analyzing images of Masson-Trichrome stained sections. These images were separated into red, blue, and green components using ImageJ using color deconvolution function. For the Masson staining, areas of the blue and red image channels were determined by thresholding and collagen deposition was determined as the ratio of blue area to red area (collagen to tissue). Intensity histograms were created using the ImageJ histogram function on the selected red area, and average pixel intensity was calculated from the histogram output in Microsoft Excel. For H-DAB, the target protein is the brown channel and the hematoxylin is the blue-purple channel.
# There is a critical need for viable organotypic models for the human lung to model diseases including pulmonary fibrosis (PF). In order to fill this need, we induced fibrosis using bleomycin in our hFLO model. Bleomycin-induced PF is an extensively used animal-based model for fibrosis, despite significant cellular and molecular differences between mouse and human lungs. Moreover, therapeutics against PF are limited due to lack of organotypic lung models adapted for drug testing and screening. […] This therapy, however, has not yet been validated in a human lung model. Here, we grew hFLO for 7 days and induced fibrosis using 20 μg mL−1 bleomycin for 3 days, after which aggregates were treated with 10 μM fasudil, a ROCK inhibitor for 4 days to observe possible changes in fibrosis (FIG. 5A). […] In PF, there is an observed alveolar and bronchiolar epithelial cell death and fibroblast abundance. We observed that with bleomycin induction, there was a decrease in the epithelial A549 with an increase in fibroblast HFL1 population ([…]).
# [2] = system: secreted factors from hFLO aggregates; experiment: Cytokine array of media from hFLO treatment groups; format: cell-based, human; conditions: media at day 14
# Protocol: The organoid media from the three treatment groups were collected at day 14. The levels of cytokines secreted to the media were immediately evaluated using the Human Cytokine Array C1000 (AAH-CYT-1000-8, Ray Biotech, GA, USA) with minor modifications. Briefly, the membranes were blocked at room temperature for 30 minutes using the blocking buffer. The media from the organoids were transferred onto the membranes and incubated with gentle rocking overnight at 4° C. After washing, the membranes were incubated with the biotinylated antibody cocktail overnight at 4° C. After further washes, the membranes were probed with Streptavidin-CF680R (29072, Biotium, CA, USA 1:1000) for 1 hour at RT. The membranes were imaged using an Odyssey CLx imager (LI-COR, Cambridge, UK) at high resolution and a wavelength of 700 nm. The exported images of the membranes were quantified using gel analysis plugin on FIJI distribution of ImageJ (open source) under the GNU General Public License.
# To further confirm the fibrosis in hFLO-bleomycin fibrotic model and the anti-fibrotic effects of fasudil, we collected culture media from the aggregates and performed a cytokine array using 120 common inflammatory factors.
# [3] = system: A549, EAhy and HFL1 triculture aggregates; experiment: 3D triculture suspension culture with soluble ECM (self-patterning, growth, fibronectin); format: cell-based, human; conditions: 100 μg mL−1 soluble ECM; day 14
# Protocol: To calculate the seeding ratios for each cell line, literature search led us to lung alveolar cell ratios to be around 24% epithelial, 30% endothelial, and 37% interstitial. By this, we simplified the seeding ratio to be roughly 1:2:2 (A549 epithelial: EAhy endothelial: HFL1 fibroblast). For suspension-based cultures, a seeding ratio of 1.0×104 to 1.0×10^5 total cells per aggregate was used and was divided to cach of the cell line using the ratio above. 100-200 μL of mixed cell suspension in 3D media or ECM supplemented 3D media were seeded into cach well of the 96-well ULA plate. […]
# Triculture cell aggregates were grown for 14 days using either traditional force aggregation (FA) or as supplemented with 300 μg mL^−1 Matrigel®. […] Cell aggregate sections were then selected using the freeform selection tool and measured for area. […]
# We then engineered a 3D triculture to model the lung alveolus and the morphological changes accompanying soluble ECM concentration. […] Cell seeding ratios were followed based on endogenous human lung cell composition which we determined to be roughly 1:2:2 (epithelial: interstitial: vascular) (Table S1).
# [4] = of 120 common inflammatory factors
# [5] = bleomycin 20 μg mL−1, live 3D confocal volumetric analysis
Molecule,lumen area [1],collagen deposition (Masson staining) [1],"pro-fibrotic expression (αSMA, fibronectin, PDGFRα; H-DAB) [1]",secretion of pro-angiogenic factors including FGF2 and VEGFA [2],"secretion of pro-inflammatory factors (CX3CL1, AREG, CCL3, IL4, IL2, AXL, EGF, IL6 among others) [2]","number of factors significantly changed (Fasudil vs Bleomycin) [2, 4]","number of factors significantly changed between control and fasudil treatment [2, 4]","epithelial A549 population [1, 5]","fibroblast HFL1 population [1, 5]","number of factors significantly increased (Control vs Bleomycin) [2, 4]",aggregate structure (H&E) [3]
O=S(=O)(c1cccc2cnccc12)N1CCCNCC1 [fasudil],rescued,decreased intensity,lowered,decreased,significantly decreased,56 factors,36 factors,,,,
bleomycin,decreased lumen area,increased collagen deposition,increased,increased secretion,increase,,,decrease,increase,68 factors,
"collagen I: rat tail collagen I (Sigma-Aldrich), used as soluble ECM supplement",,,,,,,,,,,predominantly compact cell clusters
